According to patent US12571793B2, “Method for evaluating biofilm formation, and invertebrate for use in evaluating biofilm formation” (MEIJI PHARMACEUTICAL UNIVERSITY, priority 2020, dated 2026):

Tested on: C. albicans strain SC5314
Assay: Test Example 5: suppression effect of antifungal drugs on biofilm formation on polyurethane fibers in silkworms, drug given 12 hours after inoculation
Assay type: in vivo, Candida albicans (in silkworm)
Conditions: antifungal drug administered 12 hours after inoculation of C. albicans; fibers extracted 24 hours after inoculation; compared with physiological saline
Experimental: Biofilms formed on the surface of the polyurethane fibers after the culture were stained with crystal violet, and the biofilms were quantified. The biofilms were stained as follows. Each of the polyurethane fibers were moved to a 1.5-ml tube and washed with 1 ml of distilled water twice. Then, 500 μl of an aqueous 0.1% crystal violet solution was added, and the polyurethane fiber was placed at room temperature for 20 to 60 minutes. The stain solution was discarded, and the polyurethane fiber were washed with 1 ml of distilled water 3 times. The polyurethane fibers were washed with 1 ml of ethanol twice and then air-dried. The polyurethane fibers were observed under a microscope (×10, CH30, Olympus Corporation), and photographs were taken. Then, 500 μl of 33% acetic acid solution was added, and the polyurethane fibers were left to stand at room temperature for 2 hours or more. The absorbance (OD590) of the sample to which 500 μl of distilled water was added to adjust the total volume to 1 ml was measured.
Next, it was examined whether biofilms by C. albicans were formed on the surface of the polyurethane fibers in the bodies of silkworms. Silkworms in which the polyurethane fibers were inserted were inoculated with 50 μl of physiological saline solution (saline) or 50 μl of a suspension of C. albicans strain SC5314 (7×10^7 cells/ml) and bred at 27° C. for 24 hours. […]

In the case of `C[C@@H]1[C@H](O)[C@@H](C)/C=C/C=C/C=C/C=C/C=C/C=C/C=C/[C@H](O[C@@H]2O[C@H](C)[C@@H](O)[C@H](N)[C@@H]2O)C[C@@H]2O[C@](O)(C[C@@H](O)C[C@@H](O)[C@H](O)CC[C@@H](O)C[C@@H](O)CC(=O)O[C@H]1C)C[C@H](O)[C@H]2C(=O)O` [amphotericin B], the “biofilm formation on the polyurethane fiber in the bodies of the silkworms (crystal violet, absorbance 590 nm)” value is reported as “significantly suppressed”.
